Laboratory results as given in ChEMBL document CHEMBL3875147 (Eur J Med Chem, 2016).
Values after ≈ are worked out from the molar mass of the structure shown.

How the values were obtained:
[1] = Hemolytic activity in human RBC at 100 uM measured after 1 hr by UV-vis absorbance method relative to control; type: ADME, cell-based, Erythrocyte; conditions: red blood cells (RBC), read-out: Activity
Pseudomonas aeruginosa [2] = assay: Antibacterial activity against Pseudomonas aeruginosa ATCC 27853 incubated for 18 to 24 hrs by micro-dilution method; type: functional
[3] = test system: Staphylococcus epidermidis; assay: Antibacterial activity against Staphylococcus epidermidis ATCC 35984 incubated for 18 to 24 hrs by micro-dilution method; type: functional; conditions: RP62A
Plesiomonas shigelloides [4] = assay: Antibacterial activity against Plesiomonas shigelloides ATCC 14029 incubated for 18 to 24 hrs by micro-dilution method; type: functional
Staphylococcus aureus [5] = assay: Antibacterial activity against Staphylococcus aureus ATCC 25923 incubated for 18 to 24 hrs by micro-dilution method; type: functional
[6] = test system: Sphingomonas paucimobilis; assay: Antibacterial activity against Sphingomonas paucimobilis MTCC 6362 incubated for 18 to 24 hrs by micro-dilution method; type: functional
Pseudomonas aeruginosa [7] = assay: Antibacterial activity against clinical isolate of Pseudomonas aeruginosa incubated for 18 to 24 hrs by micro-dilution method; type: functional
Salmonella typhi = assay: Antibacterial activity against clinical isolate of Salmonella typhi incubated for 18 to 24 hrs by micro-dilution method; type: functional, Salmonella enterica subsp. enterica serovar Typhi; conditions: Salmonella enterica
Enterococcus faecalis = assay: Antibacterial activity against clinical isolate of Enterococcus faecalis incubated for 18 to 24 hrs by micro-dilution method; type: functional
[8] = Antibacterial activity against Aeromonas hydrophila ATCC 7966 incubated for 18 to 24 hrs by micro-dilution method; type: functional, Aeromonas hydrophila subsp. hydrophila ATCC 7966
Escherichia coli [9] = assay: Antibacterial activity against Escherichia coli ATCC 25922 incubated for 18 to 24 hrs by micro-dilution method; type: functional
Salmonella typhimurium = assay: Antibacterial activity against clinical isolate of Salmonella typhimurium incubated for 18 to 24 hrs by micro-dilution method; type: functional, Salmonella enterica subsp. enterica serovar Typhimurium; conditions: Salmonella enterica
Staphylococcus aureus [10] = assay: Potency index, ratio of MIC for ciprofloxacin to MIC for test compound for antibacterial activity against Staphylococcus aureus ATCC 25923; type: functional
Escherichia coli [11] = assay: Potency index, ratio of MIC for ciprofloxacin to MIC for test compound for antibacterial activity against Escherichia coli ATCC 25922; type: functional
[12] = test system: Staphylococcus epidermidis; assay: Potency index, ratio of MIC for ciprofloxacin to MIC for test compound for antibacterial activity against Staphylococcus epidermidis ATCC 35984; type: functional, RP62A
Plesiomonas shigelloides [13] = assay: Potency index, ratio of MIC for ciprofloxacin to MIC for test compound for antibacterial activity against Plesiomonas shigelloides ATCC 14029; type: functional

| Compound | hemolysis at 1 h, 100 µM [1] [%] | MIC (Pseudomonas aeruginosa [2]) [µM] | MIC [3] [µM] | MIC (Plesiomonas shigelloides [4]) [µM] | MIC (Staphylococcus aureus [5]) [µM] | MIC [6] [µM] | MIC (Pseudomonas aeruginosa [7]) [µM] | MIC (Salmonella typhi) [µM] | MIC (Enterococcus faecalis) [µM] | MIC [8] [µM] | MIC (Escherichia coli [9]) [µM] | MIC (Salmonella typhimurium) [µM] | Ratio (Staphylococcus aureus [10]) | Ratio (Escherichia coli [11]) | Ratio [12] | Ratio (Plesiomonas shigelloides [13]) |
| --- | --- | --- | --- | --- | --- | --- | --- | --- | --- | --- | --- | --- | --- | --- | --- | --- |
| CCc1ccc(-n2cc(COC(=O)c3cn(C4CC4)c4cc(N5CCN(Cc6cn(-c7ccc(CC)cc7)nn6)CC5)c(F)cc4c3=O)nn2)cc1 | 6.81 | > 142 | 71.2 (≈ 50 µg/mL) | 4.45 (≈ 3.12 µg/mL) | 142 (≈ 100 µg/mL) | > 142 | > 142 | 142 (≈ 100 µg/mL) | 142 (≈ 100 µg/mL) | > 142 | > 142 | 8.91 (≈ 6.25 µg/mL) | – | – | – | – |
| Cc1cc(C)cc(-n2cc(COC(=O)c3cn(C4CC4)c4cc(N5CCN(Cc6cn(-c7cc(C)cc(C)c7)nn6)CC5)c(F)cc4c3=O)nn2)c1 | 8.79 | > 142 | 142 (≈ 100 µg/mL) | 8.91 (≈ 6.25 µg/mL) | 71.2 (≈ 50 µg/mL) | > 142 | > 142 | > 142 | > 142 | > 142 | 142 (≈ 100 µg/mL) | > 142 | – | – | – | – |
| O=C(O)c1cn(C2CC2)c2cc(N3CCNCC3)c(F)cc2c1=O [CIPROFLOXACIN] | 5.23 | – | 9.43 (≈ 3.12 µg/mL) | 9.43 (≈ 3.12 µg/mL) | – | – | – | – | – | – | – | – | – | – | – | – |
| O=C(OCc1cn(-c2ccc(F)c(Cl)c2)nn1)c1cn(C2CC2)c2cc(N3CCN(Cc4cn(-c5ccc(F)c(Cl)c5)nn4)CC3)c(F)cc2c1=O | 5.36 | 16.6 (≈ 12.5 µg/mL) | 8.33 (≈ 6.25 µg/mL) | 4.16 (≈ 3.12 µg/mL) | 8.33 (≈ 6.25 µg/mL) | 16.6 (≈ 12.5 µg/mL) | 16.6 (≈ 12.5 µg/mL) | – | 16.6 (≈ 12.5 µg/mL) | 33.3 (≈ 25 µg/mL) | 8.33 (≈ 6.25 µg/mL) | 16.6 (≈ 12.5 µg/mL) | – | – | – | – |
| O=C(OCc1cn(-c2ccc(Br)cc2)nn1)c1cn(C2CC2)c2cc(N3CCN(Cc4cn(-c5ccc(Br)cc5)nn4)CC3)c(F)cc2c1=O | 1.46 | 15.6 (≈ 12.5 µg/mL) | 3.89 (≈ 3.13 µg/mL) | 3.89 (≈ 3.13 µg/mL) | 1.94 (≈ 1.56 µg/mL) | 15.6 (≈ 12.5 µg/mL) | 15.6 (≈ 12.5 µg/mL) | 7.78 (≈ 6.25 µg/mL) | 15.6 (≈ 12.5 µg/mL) | 31.1 (≈ 25 µg/mL) | 7.78 (≈ 6.25 µg/mL) | 15.6 (≈ 12.5 µg/mL) | – | – | – | – |
| O=C(OCc1cn(-c2ccc(F)cc2Cl)nn1)c1cn(C2CC2)c2cc(N3CCN(Cc4cn(-c5ccc(F)cc5Cl)nn4)CC3)c(F)cc2c1=O | 29.8 | 16.6 (≈ 12.5 µg/mL) | 4.16 (≈ 3.12 µg/mL) | 33.3 (≈ 25 µg/mL) | 2.08 (≈ 1.56 µg/mL) | 33.3 (≈ 25 µg/mL) | 16.6 (≈ 12.5 µg/mL) | – | 16.6 (≈ 12.5 µg/mL) | 66.6 (≈ 50 µg/mL) | 16.6 (≈ 12.5 µg/mL) | 33.3 (≈ 25 µg/mL) | – | – | – | – |
| C#CCOC(=O)c1cn(C2CC2)c2cc(N3CCN(CC#C)CC3)c(F)cc2c1=O | 4.57 | 7.67 (≈ 3.13 µg/mL) | 1.92 (≈ 0.782 µg/mL) | 1.92 (≈ 0.782 µg/mL) | 1.92 (≈ 0.782 µg/mL) | 30.7 (≈ 12.5 µg/mL) | 15.3 (≈ 6.25 µg/mL) | 30.7 (≈ 12.5 µg/mL) | 30.7 (≈ 12.5 µg/mL) | 61.4 (≈ 25 µg/mL) | 1.92 (≈ 0.782 µg/mL) | 7.67 (≈ 3.13 µg/mL) | 5 - 10 | 5 - 10 | 5 - 10 | 5 - 10 |
| CCCCCc1ccc(-n2cc(COC(=O)c3cn(C4CC4)c4cc(N5CCN(Cc6cn(-c7ccc(CCCCC)cc7)nn6)CC5)c(F)cc4c3=O)nn2)cc1 | 5.32 | > 127 | 127 (≈ 100 µg/mL) | 63.6 (≈ 50 µg/mL) | 63.6 (≈ 50 µg/mL) | > 127 | 31.8 (≈ 25 µg/mL) | > 127 | > 127 | > 127 | > 127 | > 127 | – | – | – | – |
| O=C(OCc1cn(-c2ccc(Cl)cc2Cl)nn1)c1cn(C2CC2)c2cc(N3CCN(Cc4cn(-c5ccc(Cl)cc5Cl)nn4)CC3)c(F)cc2c1=O | 18.2 | 15.9 (≈ 12.5 µg/mL) | 3.99 (≈ 3.13 µg/mL) | 7.98 (≈ 6.25 µg/mL) | 3.99 (≈ 3.13 µg/mL) | 15.9 (≈ 12.5 µg/mL) | 7.98 (≈ 6.25 µg/mL) | 7.98 (≈ 6.25 µg/mL) | 15.9 (≈ 12.5 µg/mL) | 7.98 (≈ 6.25 µg/mL) | > 128 | 15.9 (≈ 12.5 µg/mL) | – | – | – | – |
| COc1ccccc1-n1cc(COC(=O)c2cn(C3CC3)c3cc(N4CCN(Cc5cn(-c6ccccc6OC)nn5)CC4)c(F)cc3c2=O)nn1 | 7.65 | 17.7 (≈ 12.5 µg/mL) | 35.4 (≈ 25 µg/mL) | 4.43 (≈ 3.13 µg/mL) | 35.4 (≈ 25 µg/mL) | 4.43 (≈ 3.13 µg/mL) | 35.4 (≈ 25 µg/mL) | 35.4 (≈ 25 µg/mL) | 35.4 (≈ 25 µg/mL) | 70.8 (≈ 50 µg/mL) | 8.86 (≈ 6.25 µg/mL) | 4.43 (≈ 3.13 µg/mL) | – | – | – | – |
